ChEMBL document CHEMBL1128961 (Bioorg Med Chem Lett, 1996)

The compounds below were run against T1, Acetylcholinesterase (Bos taurus) (UniProt P23795).
T1 sequence (whole entry): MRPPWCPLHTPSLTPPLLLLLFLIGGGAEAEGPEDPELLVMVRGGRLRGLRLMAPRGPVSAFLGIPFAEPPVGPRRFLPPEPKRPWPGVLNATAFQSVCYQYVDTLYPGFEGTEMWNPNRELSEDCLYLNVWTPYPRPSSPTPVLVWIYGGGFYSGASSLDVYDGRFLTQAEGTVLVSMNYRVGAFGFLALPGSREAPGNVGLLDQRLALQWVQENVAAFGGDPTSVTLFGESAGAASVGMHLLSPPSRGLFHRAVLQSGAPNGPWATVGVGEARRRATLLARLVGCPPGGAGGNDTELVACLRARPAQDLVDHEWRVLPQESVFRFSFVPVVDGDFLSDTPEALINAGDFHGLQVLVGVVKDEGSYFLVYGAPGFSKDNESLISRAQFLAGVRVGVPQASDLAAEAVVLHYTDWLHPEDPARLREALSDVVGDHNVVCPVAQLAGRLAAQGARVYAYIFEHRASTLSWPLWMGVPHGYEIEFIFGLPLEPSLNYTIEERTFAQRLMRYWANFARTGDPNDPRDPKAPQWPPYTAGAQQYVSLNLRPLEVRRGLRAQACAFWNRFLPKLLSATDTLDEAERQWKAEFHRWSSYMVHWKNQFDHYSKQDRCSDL
Description: Kinetic constant for inhibition of fetal bovine serum acetylcholinesterase

Row | SMILES | k off [s⁻¹]
1 | C/C=C1\C2C=C(C)C[C@]1(N)c1ccc(O)nc1C2(C)C (mixture of isomers) | 0.000217
2 | C/C=C1\[C@H]2C=C(C)C[C@]1(N)c1ccc(=O)[nH]c1C2 (stereo in doubt; form 2) | 0.000334
3 | C/C=C1\[C@H]2C=C(C)C[C@]1(N)c1ccc(=O)[nH]c1C2 (stereo in doubt; form 1) | 0.000367

The compounds below were run against T2, Acetylcholinesterase (Bos taurus, UniProt P23795) (assay: Dissociation constant for the inhibition of fetal bovine serum acetylcholinesterase was determined..).
T2 sequence (P23795 whole entry): T1 sequence (whole entry)

Row | SMILES | Ki [nM]
4 | C/C=C1\C2C=C(C)C[C@]1(N)c1ccc(O)nc1C2(C)C (mixture of isomers) | 16.7
5 | C/C=C1\[C@H]2C=C(C)C[C@]1(N)c1ccc(=O)[nH]c1C2 (stereo in doubt; form 1) [HUPERZINE A] | 23.6
6 | C/C=C1\[C@H]2C=C(C)C[C@]1(N)c1ccc(=O)[nH]c1C2 (stereo in doubt; form 2) [HUPERZINE A] | 5.9
